The assay relates to 876862-298-R-J1-PDC complex spheroids, viability % test/control. Briefly: Anticancer human tumor 876862-298-R-J1-PDC patient-derived endometrial carcinoma cell line growth inhibition [CLK]. Particulars: for viability, T/C: stronger effect = lower value; for IC50: curve of compound. From the text: A high-throughput screen of multi-cell type tumor spheroids was designed to identify active combinations of […] and targeted small molecules. Complex spheroids include a stromal component modeled by human endothelial cells (HUVEC) and fibroblasts modeled by human mesenchymal stem cells (MSCs). The concentration ranges selected for each drug and investigational agent were based upon clinically achievable concentrations if the clinical Cmax of the agent was known.
Compounds. The drugs and investigational agents: cirtuvivint (SM08502; NSC835563), CC-671 (NSC850746), vemurafenib (NSC761431), tapotoclax (NSC804041), sotorasib (NSC818433), adagrasib (NSC831453), MRTX-1133 (NSC836407), BAY2416964 (NSC825713), copanlisib (NSC816437), inavolisib (NSC800729), abemaciclib (NSC768073), osimertinib (NSC779217), entinostat (NSC756642), eltanexor (KPT-8602, NSC794443), venetoclax (NSC766270), ceralasertib (NSC777638), bortezomib (NSC756655), olaparib (NSC753686), talazoparib (NSC767125), alisertib (NSC759677), peposertib (NSC802822), gemcitabine (NSC613327), 5-fluorouracil (NSC19893), SN-38 (NSC673596), oxaliplatin (NSC266046), paclitaxel (NSC125973), and doxorubicin (NSC123127), were obtained from the National Cancer Institute (NCI) Developmental Therapeutics Program Chemical Repository. The FDA-approved anticancer drug set is available from the Developmental Therapeutics Program at https://dtp.cancer.gov/organization/dscb/obtaining/available plates.htm. […] The stock solutions were prepared in dimethyl sulfoxide (DMSO, Sigma-Aldrich, St. Louis, MO, cat. D2650), except for the platinum complexes which were prepared in saline (Quality Biological, Gaithersburg, MD, cat. 114-055-101), at 800-fold the tested concentration and stored at -70 degrees C prior to their use. All drugs and investigational agents were tested over a range starting from a high concentration at or near the clinical Cmax and decreasing in half-log increments. If the clinical Cmax for an agent had not been determined, the highest concentration tested was 10 microM.
Cell Culture. All cells were maintained in an incubator at 37 degrees C and 5% CO2 with 95% humidity. The PDC lines were cultured according to standard operating procedures established by the NCI PDMR. Briefly, all PDCs were thawed and cultured in Matrigel-coated flasks prepared with a working solution of 1X Ham's F-12 nutrient mix, without supplementation (Invitrogen, Waltham, MA, cat. 11765054), 100 U/mL penicillin-streptomycin (Invitrogen, cat. 15140122), and 2.5% Matrigel (Corning Inc., Corning, NY, cat. 354248) for the first three passages. The 947758-054-R-J2-PDC line was cultured in 6B/Colon 1A media, which includes advanced DMEM/F-12 (Thermo Fisher Scientific, cat. 12634028), 10 mM HEPES (Thermo Fisher Scientific, cat. 15630080), 1X GlutaMAX supplement (Thermo Fisher Scientific, cat. 35050061), 0.1 mg/mL primocin (InvivoGen, cat. ant-pm-2), 10% defined fetal bovine serum, heat inactivated (HyClone Laboratories Inc., cat. SH30070.03HI), 1.25 mM N-Acetyl-L-cysteine (Sigma-Aldrich, cat. A9165), 10 mM nicotinamide (Sigma-Aldrich, cat. N0636), 1X B-27 supplement (Thermo Fisher Scientific, cat. 17504044), 1X N-2 supplement (Thermo Fisher Scientific, cat. 17502048), and 10 microM Y-27632 dihydrochloride (Tocris Bioscience, cat. 1254). The 876862-298-R-J1-PDC was cultured in 6E media, which includes all 6B/Colon 1A media components plus 50% L-WRN conditioned media (ATCC, cat. CRL-3276), 50 ng/mL recombinant human EGF recombinant protein (hEGF; Thermo Fisher Scientific, cat. PHG0311), 10 ng/mL recombinant human fibroblast growth factor 10 (hGFG-10; PeproTech, cat. 100-26), 1 ng/mL recombinant human fibroblast growth factor 2 (hFGF-2; PeproTech, cat. 100-18B), and 1 µM prostaglandin E2 (PGE2; Tocris, cat. 2296). The 227483-062-R1-J1-PDC line was cultured in Panc media, containing all 6E components except hFGF-2, with the addition of 500 nM SB-431542 (Selleckchem, cat. S1067) and 10 nM gastrin (Tocris, cat. 3006). […]

Several values for one entry are separate records, joined by “and”; a condition that tells them apart may be missing. Equal values may be shown once.
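Further: spheroids exposed to drugs for 7 days before readout.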
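Wherever viability, T/C is given: 100% = DMSO vehicle control wells.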

In the case of `C#Cc1c(F)ccc2cc(O)cc(-c3ncc4c(N5CC6CCC(C5)N6)nc(OCC56CCCN5CC(F)C6)nc4c3F)c12` (stereo unspecified), the IC50 (in general, the midpoint of a concentration-inhibition curve) is more than 10000 nM. For the same molecule, for the setting “compound 0.0316 µM”, the viability, T/C (commonly the ratio of treated to control) is 95.8% and 117%. For the same molecule, the viability, T/C (compound 0.1 µM) is 100% and 96.1%. Also, under “compound 0.316 µM”, the viability, T/C was 90.8% and 110%. For the same molecule, the viability, T/C (compound 1 µM) was 92.2% and 105%. Moreover, the viability, T/C (compound 3.16 µM) was 103% and 100%. In addition, where the note is “compound 10 µM”, the viability, T/C was 81.8% and 86.7%.

In the case of `C=C(F)C(=O)N1CCN(c2nc(OCC3CCCN3C)nc3c2CCN(c2cccc4cccc(Cl)c24)C3)CC1CC#N` (stereo unspecified), the IC50 is 5200 nM and 6130 nM. The viability, T/C (compound 0.0316 µM) was 97.6% and 102%. Moreover, where the note is “compound 0.1 µM”, the viability, T/C was 97.9% and 102%. For the same molecule, the viability, T/C (compound 0.316 µM) is 92.6% and 96.1%. Moreover, the viability, T/C (compound 1 µM) was 102%. The viability, T/C (compound 3.16 µM) is 86.3% and 96.5%. In addition, the viability, T/C (compound 10 µM) was 2.35% and 15.5%.

As for `C=CC(=O)N1CCN(c2nc(=O)n(-c3c(C)ccnc3C(C)C)c3nc(-c4c(O)cccc4F)c(F)cc23)C(C)C1` (stereo unspecified), the 50% inhibitory concentration (IC50) is more than 10000 nM. Also, the viability, T/C (compound 0.0316 µM) was 95.8%. The viability, T/C (compound 0.1 µM) was 97.3% and 99.5%. Besides, where the note is “compound 0.316 µM”, the viability, T/C was 102% and 108%. The viability, T/C (compound 1 µM) is 106% and 103%. Besides, the viability, T/C (compound 3.16 µM) is 110% and 114%. Moreover, the viability, T/C (compound 10 µM) is 94.6% and 83%.

Consider `C=CC(=O)Nc1cc(Nc2nccc(-c3cn(C)c4ccccc34)n2)c(OC)cc1N(C)CCN(C)C`, for which the IC50 was 269 nM and 290 nM. Moreover, the viability, T/C (compound 0.000949 µM) was 107% and 103%. Besides, where the note is “compound 0.003 µM”, the viability, T/C is 98.7% and 109%. For the same molecule, the viability, T/C (compound 0.00949 µM) was 100% and 103%. In addition, the viability, T/C (compound 0.03 µM) is 96.7% and 88.7%. For the same molecule, the viability, T/C (compound 0.0949 µM) was 81% and 82.2%. Moreover, the viability, T/C (compound 0.3 µM) was 46.5% and 48.2%.

For `CC(C)CC(NC(=O)C(Cc1ccccc1)NC(=O)c1cnccn1)B(O)O` (stereo unspecified), the IC50 was 1.99 nM and 1.64 nM. Besides, the viability, T/C (compound 0.000949 µM) was 116% and 88.5%. Besides, under “compound 0.003 µM”, the viability, T/C is 13.2% and 7.38%. In addition, under “compound 0.00949 µM”, the viability, T/C is 0.57% and 0.51%. Besides, the viability, T/C (compound 0.03 µM) was 0.45% and 0.53%. Moreover, the viability, T/C (compound 0.0949 µM) is 0.3% and 0.59%. The viability, T/C (compound 0.3 µM) is 0.2% and 0.9%.

As to `CC(CO)NC(=O)c1cc(-c2ccc(Cl)cc2)nn(-c2cnn(C)c2)c1=O` (stereo unspecified), the IC50 is more than 10000 nM. The viability, T/C (compound 0.0316 µM) is 85% and 116%. Moreover, the viability, T/C (compound 0.1 µM) was 92.3% and 95.9%. In addition, where the note is “compound 0.316 µM”, the viability, T/C was 79.3% and 80.6%. Besides, the viability, T/C (compound 1 µM) was 88.4% and 76.2%. For the setting “compound 3.16 µM”, the viability, T/C is 71.6% and 78.7%. Where the note is “compound 10 µM”, the viability, T/C was 56% and 64.9%.

With `CC(Nc1ccc2c(c1)OCCn1cc(N3C(=O)OCC3C(F)F)nc1-2)C(N)=O` (stereo unspecified), the IC50 is 2840 nM and 1210 nM. In addition, the viability, T/C (compound 0.0316 µM) was 105% and 86.6%. Also, the viability, T/C (compound 0.1 µM) is 81.8% and 90.4%. Moreover, the viability, T/C (compound 0.316 µM) is 76.5% and 68.3%. Moreover, the viability, T/C (compound 1 µM) is 72.2% and 51.6%. Moreover, the viability, T/C (compound 3.16 µM) was 48.5% and 38.3%. For the same molecule, the viability, T/C (compound 10 µM) is 27.7% and 22.8%.

Take `CCCS(=O)(=O)Nc1ccc(F)c(C(=O)c2c[nH]c3ncc(-c4ccc(Cl)cc4)cc23)c1F`: the IC50 is 8630 nM and 7530 nM. Besides, the viability, T/C (compound 0.0316 µM) was 111% and 94.9%. Also, the viability, T/C (compound 0.1 µM) was 107% and 108%. In addition, the viability, T/C (compound 0.316 µM) was 108% and 97.3%. Moreover, the viability, T/C (compound 1 µM) was 100% and 110%. Moreover, under “compound 3.16 µM”, the viability, T/C was 91.8% and 83.4%. The viability, T/C (compound 10 µM) was 43.5% and 39.1%.
